For experiment [1], the target named is T1, human amylin 3(a) receptor (human calcitonin receptor + RAMP-3), BHK570 cells (Homo sapiens, UniProt O60896+P30988).
T1 construct: host or cells: BHK570
Nature of the experiment: Assay (II)a functional CRE-luciferase assay with albumin, human amylin receptor. Type of experiment: cell-based. The note with it: Tested with HSA; read-out: hAmylin-R funct. EC50. The gist of the method: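 BHK570 cells stably carry a CRE-luciferase reporter and the calcitonin receptor; co-transfected RAMP-3 gives the amylin 3(a) receptor line. Cells were treated for 3 h at 37 °C in DMEM with 10% FBS and 10 mM Hepes, pH 7.4. cAMP-driven luciferase was read by LucLite luminescence after 30 min at RT.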

Experiment [2] has as its target T2, human amylin receptor (Amylin 3(a)/CRE-luc cell membranes) (Homo sapiens, UniProt O60896+P30988).
T2 construct: host or cells: BHK570
T2 sequence (P30988 25-474): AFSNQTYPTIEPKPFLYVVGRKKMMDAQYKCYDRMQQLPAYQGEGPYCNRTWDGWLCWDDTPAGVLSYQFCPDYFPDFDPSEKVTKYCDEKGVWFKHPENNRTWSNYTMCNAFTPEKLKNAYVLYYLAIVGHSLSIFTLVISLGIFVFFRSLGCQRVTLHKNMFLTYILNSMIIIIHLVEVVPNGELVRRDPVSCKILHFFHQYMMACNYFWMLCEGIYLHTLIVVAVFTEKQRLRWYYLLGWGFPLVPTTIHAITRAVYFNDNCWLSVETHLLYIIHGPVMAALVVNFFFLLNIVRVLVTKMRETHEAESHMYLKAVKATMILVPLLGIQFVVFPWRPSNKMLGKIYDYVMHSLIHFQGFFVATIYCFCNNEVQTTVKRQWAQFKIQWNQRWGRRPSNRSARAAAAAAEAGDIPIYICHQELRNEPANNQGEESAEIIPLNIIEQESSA
T2 sequence (O60896 24-148 partner): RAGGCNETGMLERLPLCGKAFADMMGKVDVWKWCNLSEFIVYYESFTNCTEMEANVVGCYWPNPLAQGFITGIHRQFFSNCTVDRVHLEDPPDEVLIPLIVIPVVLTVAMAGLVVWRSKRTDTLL
Nature of the experiment: Assay (V) binding to the human amylin receptor (membrane, SPA). The note with it: 125I-rat amylin, read-out: hAmylin-R binding IC50. Here is the method:
The binding assay was performed using scintillation proximity assay (SPA) beads (RPNQ0001) from PerkinElmer and cell membranes from the Amylin 3(a)/CRE-luc cells (as described in Assay (II)) were used. Membranes were prepared in the following way; the cells were rinsed with PBS and incubated with Versene for approximately 5 min before harvesting. The cells were flushed with PBS and the cell-suspension was centrifuged for 5 min at 1000 rpm. Cells were homogenized (ultrathurrax) in a buffer containing 20 mM Na-HEPES and 10 mM EDTA (pH 7.4) and centrifuged at 20.000 rpm for 15 min. The resulting pellet was resuspended, homogenized and centrifuged (20.000 rpm, 15 min) in a buffer containing 20 mM Na-HEPES and 0.1 mM EDTA (pH 7.4, buffer 2). The resulting pellet was resuspended in buffer 2 and protein concentration was tested (BCA protein Assay, Pierce). The homogenate was kept cold during the whole procedure. The membranes were kept at −80° C. until use. The assay was performed in a 384 well Optiplate (PerkinElmer) in a total volume of 40 ul. Membranes were mixed with SPA beads. Final concentration of membranes 35 ng/μL final and SPA beads was 0.05 mg/well. […] Samples were analyzed on TopCounter™ (Packard). The IC50 was calculated using (one site binding competition analysis) GraphPad Prism5 as a measure of receptor affinity.

The results in this text go back to US9593149B2, “Amylin and calcitonin receptor agonist” (Novo Nordisk A/S, priority 2014, dated 2017).

Structures are written as SMILES. Numbered stars: 1 amine (or outer) side, 2 acyl side, 3 side chain; on linkers, the order of the positions; unused ones are H or OH. Side chains are listed from the residue outwards. Peptide text beside a SMILES is read from it. * marks the point of attachment. C20 diacid = O=C(O)CCCCCCCCCCCCCCCCCCC(=O)*; C18 diacid = O=C(O)CCCCCCCCCCCCCCCCC(=O)*; γGlu = O=C(O)[C@H](CCC(=O)[*:2])N[*:1]

Consider `CC(C)C[C@H](NC(=O)[C@H](CCCNC(=N)N)NC(=O)CNC(=O)[C@H](CC(C)C)NC(=O)[C@@H](NC(=O)[C@H](C)NC(=O)[C@@H](NC(=O)[C@H](CO)NC(=O)[C@H](CC(C)C)NC(=O)[C@H](CCC(=O)O)NC(=O)[C@H](CO)NC(=O)[C@H](C)NC(=O)CC[C@H](NC(=O)CCCCCCCCCCCCCCCCCCC(=O)O)C(=O)O)[C@@H](C)O)C(C)C)C(=O)N[C@@H](CO)C(=O)N[C@@H](CCC(N)=O)C(=O)N[C@@H](CCC(=O)O)C(=O)N[C@@H](CC(C)C)C(=O)N[C@@H](Cc1c[nH]cn1)C(=O)N[C@@H](CCC(=O)O)C(=O)N[C@@H](CC(C)C)C(=O)N[C@@H](CCC(N)=O)C(=O)N[C@H](C(=O)N[C@@H](Cc1ccc(O)cc1)C(=O)N1CCC[C@H]1C(=O)N[C@@H](CCCNC(=N)N)C(=O)N[C@H](C(=O)N[C@@H](CCC(=O)O)C(=O)N[C@H](C(=O)NCC(=O)N[C@@H](CO)C(=O)NCC(=O)N[C@H](C(=O)N[C@@H](Cc1ccc(O)cc1)C(N)=O)[C@@H](C)O)[C@@H](C)O)[C@@H](C)O)[C@@H](C)O` [compound 114, [N-terminal(C20 diacid-gGlu), des1, 9V, 15Q, 21Q, 23Y, 30S, 31G, 32T, 33Y]mimylin], for which the EC50 (commonly the concentration at which the effect is half-maximal) in experiment [1] was 0.142 nM.

For `CC(=O)N[C@@H](C)C(=O)N[C@@H](CO)C(=O)N[C@@H](CCCCNC(=O)CC[C@H](NC(=O)CCCCCCCCCCCCCCCCCCC(=O)O)C(=O)O)C(=O)N[C@@H](CC(C)C)C(=O)N[C@@H](CO)C(=O)N[C@H](C(=O)N[C@@H](C)C(=O)N[C@@H](C)C(=O)N[C@@H](CC(C)C)C(=O)NCC(=O)N[C@@H](CCCNC(=N)N)C(=O)N[C@@H](CC(C)C)C(=O)N[C@@H](CO)C(=O)N[C@@H](C)C(=O)N[C@@H](CCC(=O)O)C(=O)N[C@@H](CC(C)C)C(=O)N[C@@H](Cc1c[nH]cn1)C(=O)N[C@@H](CCC(=O)O)C(=O)N[C@@H](CC(C)C)C(=O)N[C@@H](C)C(=O)N[C@H](C(=O)N[C@@H](CC(C)C)C(=O)N1CCC[C@H]1C(=O)N[C@@H](CCCNC(=N)N)C(=O)N[C@H](C(=O)N[C@@H](CCC(=O)O)C(=O)N[C@H](C(=O)NCC(=O)N[C@@H](CO)C(=O)NCC(=O)N[C@@H](CO)C(=O)N1CCC[C@H]1C(N)=O)[C@@H](C)O)[C@@H](C)O)[C@@H](C)O)[C@@H](C)O` [compound 68, [N-terminal(acetyl), des1, 4K(C20 diacid-gGlu), 30S, 31G]mimylin] (Ac-ASK([γGlu-C20 diacid])LSTAALGRLSAELHELATLPRTETGSGSP-NH2), the IC50 (as a rule, the concentration at which inhibition is half-maximal) in experiment [2] came to 0.05 nM. Also, in experiment [1], the EC50 turned out to be 0.072 nM.

For the compound `CC(C)C[C@H](NC(=O)[C@H](CCC(=O)O)NC(=O)[C@H](C)NC(=O)[C@@H](NC(=O)[C@H](CC(C)C)NC(=O)[C@H](CCCNC(=N)N)NC(=O)CNC(=O)[C@H](CC(C)C)NC(=O)[C@@H](NC(=O)[C@H](C)NC(=O)[C@@H](NC(=O)[C@@H](NC(=O)[C@H](CC(C)C)NC(=O)[C@H](CCC(=O)O)NC(=O)[C@H](CO)NC(=O)[C@H](C)NC(=O)CC[C@H](NC(=O)CCCCCCCCCCCCCCCCC(=O)O)C(=O)O)[C@@H](C)O)[C@@H](C)O)C(C)C)[C@@H](C)O)C(=O)N[C@@H](Cc1c[nH]cn1)C(=O)N[C@@H](CCC(=O)O)C(=O)N[C@@H](CC(C)C)C(=O)N[C@@H](CCC(=O)O)C(=O)N[C@H](C(=O)N[C@@H](CC(C)C)C(=O)N1CCC[C@H]1C(=O)N[C@@H](CCCNC(=N)N)C(=O)N[C@H](C(=O)N[C@@H](CCC(=O)O)C(=O)N[C@H](C(=O)NCC(=O)N[C@H](C(=O)NCC(=O)N[C@H](C(=O)N1CCC[C@H]1C(N)=O)[C@@H](C)O)[C@@H](C)O)[C@@H](C)O)[C@@H](C)O)[C@@H](C)O` [compound 105, [N-terminal(C18 diacid-gGlu), des1, 6T, 9V, 14T, 21E, 30T, 31G, 32T]mimylin] ({C18 diacid-γGlu}-ASELTTAVLGRLTAELHELETLPRTETGTGTP-NH2), the IC50 in experiment [2] is 0.309 nM.
